These results are taken from patent publication US20240034737A1, “Heterocyclic Derivatives as P2X7 Receptor Antagonists” (BREYE THERAPEUTICS APS, priority 2020, published 2024).

One test addresses P2X7 receptor (Homo sapiens (Human), UniProt Q99572). The experiment in a line: Human P2X7 channel calcium-influx assay (Fluo-8 NW, FLIPR TETRA, Bz-ATP stimulation). It counts as cell-based. As to conditions: HEK-293 cells stably transfected with P2X7 receptor, Low Divalent Cation Assay Buffer, read-out: hP2X7 IC50. The protocol:
(§1) Extracellular binding of Bz-ATP to P2X7 receptor opens the channel and allows Ca^2+ influx into the cells. This Ca^2+ entry was measured in HEK-293 cells stably transfected with P2X7 receptor using Screen Quest™ Fluo-8 No Wash Calcium Assay Kit (AAt Bioquest®, cat. 36316). Once inside the cell, the lipophilic blocking groups of Fluo-8 are cleaved by non-specific cell esterases, resulting in a negatively-charged fluorescent dye that stays inside cells. Its fluorescence increases upon binding to calcium. When HEK-293/P2X7 cells are stimulated with Bz-ATP, Ca^2+ enters the cells and the fluorescence of Fluo-8 NW increases.
(§2) HEK-293 cells stably transfected with P2X7 receptor were seeded overnight in growth medium at 10,000 to 20,000 cells/well in 384-well plate. 24 hours later, the medium was removed, and the cells were pre-loaded at RT for 1 hour with 20 μL/w of Fluo-8 NW. Then 10 μL/w of test compounds and reference antagonist A438079 at 3X-concentration were injected with the […] and the kinetic response over a period of five minutes was monitored.

A further test deals with mP2X7 (Mus musculus (Mouse), UniProt Q9Z1M0). Briefly: mP2X7 channel calcium-influx assay (Fluo-8 NW, FLIPR TETRA, Bz-ATP stimulation). It counts as cell-based. As to the method:
as §1, §2

Sequence of P2X7 receptor (Q99572 whole entry): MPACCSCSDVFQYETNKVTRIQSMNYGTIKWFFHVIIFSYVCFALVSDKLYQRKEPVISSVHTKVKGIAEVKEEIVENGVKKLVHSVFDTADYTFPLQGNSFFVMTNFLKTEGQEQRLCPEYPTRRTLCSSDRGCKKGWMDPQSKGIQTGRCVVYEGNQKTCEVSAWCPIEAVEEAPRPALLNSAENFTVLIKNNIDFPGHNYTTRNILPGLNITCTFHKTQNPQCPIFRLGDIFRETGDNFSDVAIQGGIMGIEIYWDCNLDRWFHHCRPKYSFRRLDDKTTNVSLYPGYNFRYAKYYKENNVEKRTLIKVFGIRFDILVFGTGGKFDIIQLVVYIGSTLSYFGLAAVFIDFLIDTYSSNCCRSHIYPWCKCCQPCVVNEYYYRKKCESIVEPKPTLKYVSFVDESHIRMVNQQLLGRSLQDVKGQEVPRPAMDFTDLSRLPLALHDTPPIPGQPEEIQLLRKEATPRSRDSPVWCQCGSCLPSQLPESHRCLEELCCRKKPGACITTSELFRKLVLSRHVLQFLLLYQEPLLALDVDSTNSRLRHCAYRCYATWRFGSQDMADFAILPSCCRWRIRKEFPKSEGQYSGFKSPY
Sequence of mP2X7 (Q9Z1M0 whole entry): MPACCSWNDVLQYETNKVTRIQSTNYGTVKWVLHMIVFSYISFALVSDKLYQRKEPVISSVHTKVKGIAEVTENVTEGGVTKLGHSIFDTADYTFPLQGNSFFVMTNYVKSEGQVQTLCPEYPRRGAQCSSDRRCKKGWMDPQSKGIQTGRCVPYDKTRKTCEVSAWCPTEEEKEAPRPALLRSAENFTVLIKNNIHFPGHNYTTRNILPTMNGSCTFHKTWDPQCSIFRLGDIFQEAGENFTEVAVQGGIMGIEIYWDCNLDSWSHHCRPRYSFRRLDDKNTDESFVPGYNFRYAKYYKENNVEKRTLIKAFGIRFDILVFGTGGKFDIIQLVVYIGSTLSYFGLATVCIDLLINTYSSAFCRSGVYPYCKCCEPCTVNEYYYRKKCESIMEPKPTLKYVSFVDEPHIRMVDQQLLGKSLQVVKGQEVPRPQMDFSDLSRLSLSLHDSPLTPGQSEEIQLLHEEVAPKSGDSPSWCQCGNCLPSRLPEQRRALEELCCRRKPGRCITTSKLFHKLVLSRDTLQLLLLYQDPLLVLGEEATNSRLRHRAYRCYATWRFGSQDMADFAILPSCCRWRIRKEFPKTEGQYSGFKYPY

Take `N#Cc1ccnc(OC2CCN(C(CNC(=O)c3c(F)cccc3Cl)c3scnc3C(F)F)CC2)c1` (centres unmarked) [Example 79, 2-Chloro-N-(2-{4-[(4-cyanopyridin-2-yl)oxy]piperidin-1-yl}-2-[4-(difluoromethyl)-1,3-thiazol-5-yl]ethyl)-6-fluorobenzamide]: the IC50 amounted to 30.1 nM on P2X7 receptor and 41.4 nM at mP2X7.
`O=C(NCC(c1scnc1C(F)F)N1CCC(Oc2cncc(F)n2)CC1)c1c(F)cccc1Cl` (centres unmarked) [Example 33, 2-Chloro-N-{2-[4-(difluoromethyl)-1,3-thiazol-5-yl]-2-{4-[(6-fluoropyrazin-2-yl)oxy]piperidin-1-yl}ethyl}-6-fluorobenzamide]: the concentration for half-maximal inhibition (IC50) at P2X7 receptor was 39.9 nM; on mP2X7, 52.5 nM.
For the compound `O=C(NCC(c1scnc1C(F)F)N1CCC(Oc2nc3ccccc3s2)CC1)c1c(F)cccc1Cl` (centres unmarked) [Example 20, N-{2-[4-(1,3-Benzothiazol-2-yloxy)piperidin-1-yl]-2-[4-(difluoromethyl)-1,3-thiazol-5-yl]ethyl}-2-chloro-6-fluorobenzamide], the results for the 50% inhibitory concentration (IC50) on P2X7 receptor and on mP2X7 were 17.5 nM and 14 nM, respectively.
On to `O=C(NCC(c1scnc1C(F)F)N1CCC(COc2nccs2)CC1)c1c(F)cccc1Cl` (centres unmarked) [Example 82, 2-chloro-N-{2-[4-(difluoromethyl)-1,3-thiazol-5-yl]-2-{4-[(1,3-thiazol-2-yloxy)methyl]piperidin-1-yl}ethyl}-6-fluorobenzamide], for which the concentration for half-maximal inhibition (IC50) at P2X7 receptor was 15.2 nM; at mP2X7, 41.9 nM.
The corresponding values for `Cc1cccc(OCC2CCN(C(CNC(=O)c3c(F)cccc3Cl)c3scnc3C(F)F)CC2)n1` (centres unmarked) [Example 88, 2-Chloro-N-{2-[4-(difluoromethyl)-1,3-thiazol-5-yl]-2-(4-{[(6-methylpyridin-2-yl)oxy]methyl}piperidin-1-yl)ethyl}-6-fluorobenzamide] are 27.8 nM and 25.2 nM.
The like results for `Cc1c(F)ncnc1OC1CCN(C(CNC(=O)c2c(F)cccc2Cl)c2scnc2C(F)F)CC1` (centres unmarked) [Example 40, 2-Chloro-N-{2-[4-(difluoromethyl)-1,3-thiazol-5-yl]-2-{4-[(6-fluoro-5-methylpyrimidin-4-yl)oxy]piperidin-1-yl}ethyl}-6-fluorobenzamide] were, in that order, 32.7 nM and 50.6 nM.
The like results for `O=C(NCC(c1scnc1C(F)F)N1CCC(COc2cncc(F)n2)CC1)c1c(F)cccc1Cl` (centres unmarked) [Example 105, 2-Chloro-N-{2-[4-(difluoromethyl)-1,3-thiazol-5-yl]-2-(4-{[(6-fluoropyrazin-2-yl)oxy]methyl}piperidin-1-yl)ethyl}-6-fluorobenzamide] were, in that order, 48.4 nM and 30.4 nM.
Turning to `Cc1cc(OC2CCN(C(CNC(=O)c3c(F)cccc3Cl)c3scnc3C(F)F)CC2)nc(F)n1` (centres unmarked) [Example 54, 2-Chloro-N-{2-[4-(difluoromethyl)-1,3-thiazol-5-yl]-2-{4-[(2-fluoro-6-methylpyrimidin-4-yl)oxy]piperidin-1-yl}ethyl}-6-fluorobenzamide], the IC50 at P2X7 receptor was found to be 22.8 nM; on mP2X7, 52.9 nM.
Consider `N#Cc1ncccc1OC1CCN(C(CNC(=O)c2c(F)cccc2Cl)c2scnc2C(F)F)CC1` (centres unmarked) [Example 18, 2-Chloro-N-(2-{4-[(2-cyanopyridin-3-yl)oxy]piperidin-1-yl}-2-[4-(difluoromethyl)-1,3-thiazol-5-yl]ethyl)-6-fluorobenzamide], for which the IC50 at P2X7 receptor was 41.1 nM; on mP2X7, 186 nM.
The like results for `O=C(NCC(c1scnc1C(F)F)N1CCC(Oc2nccnc2F)CC1)c1c(F)cccc1Cl` (centres unmarked) [Example 34, 2-Chloro-N-{2-[4-(difluoromethyl)-1,3-thiazol-5-yl]-2-{4-[(3-fluoropyrazin-2-yl)oxy]piperidin-1-yl}ethyl}-6-fluorobenzamide] were, in that order, 55.5 nM and 174 nM.
For `O=C(NCC(c1scnc1C(F)F)N1CCC(Oc2ncccc2C(F)(F)F)CC1)c1c(F)cccc1Cl` (centres unmarked) [Example 59, 2-Chloro-N-{2-[4-(difluoromethyl)-1,3-thiazol-5-yl]-2-(4-{[3-(trifluoromethyl)pyridin-2-yl]oxy}piperidin-1-yl)ethyl}-6-fluorobenzamide], the values for the concentration for half-maximal inhibition (IC50) at P2X7 receptor and on mP2X7 were 29.4 nM and 56.1 nM, respectively.
In the case of `O=C(NCC(c1scnc1C(F)F)N1CCC(Oc2cccc(F)n2)CC1)c1c(F)cccc1Cl` (centres unmarked) [Example 72, 2-Chloro-N-{2-[4-(difluoromethyl)-1,3-thiazol-5-yl]-2-{4-[(6-fluoropyridin-2-yl)oxy]piperidin-1-yl}ethyl}-6-fluorobenzamide], the IC50 worked out at 11.9 nM on P2X7 receptor and 29.4 nM at mP2X7.
For `O=C(NCC(c1scnc1C(F)F)N1CCC(Oc2cncc(-n3cccn3)n2)CC1)c1c(F)cccc1Cl` (centres unmarked) [Example 58, 2-Chloro-N-{2-[4-(difluoromethyl)-1,3-thiazol-5-yl]-2-(4-{[6-(1H-pyrazol-1-yl)pyrazin-2-yl]oxy}piperidin-1-yl)ethyl}-6-fluorobenzamide], the half-maximal inhibitory concentration (IC50) on P2X7 receptor was determined as 27.4 nM; at mP2X7, 11.5 nM.
The like results for `N#Cc1cccc(OC2CCN(C(CNC(=O)c3c(F)cccc3Cl)c3scnc3C(F)F)CC2)n1` (centres unmarked) [Example 37, 2-Chloro-N-(2-{4-[(6-cyanopyridin-2-yl)oxy]piperidin-1-yl}-2-[4-(difluoromethyl)-1,3-thiazol-5-yl]ethyl)-6-fluorobenzamide] were, in that order, 28 nM and 28.5 nM.
For `O=C(NCC(c1scnc1C(F)F)N1CCC(Oc2nc3ccccc3o2)CC1)c1c(F)cccc1Cl` (centres unmarked) [Example 22, N-{2-[4-(1,3-Benzoxazol-2-yloxy)piperidin-1-yl]-2-[4-(difluoromethyl)-1,3-thiazol-5-yl]ethyl}-2-chloro-6-fluorobenzamide], the IC50 on P2X7 receptor was determined as 20.5 nM; on mP2X7, 12.3 nM.
With `Cc1nc(C)c(F)c(OC2CCN(C(CNC(=O)c3c(F)cccc3Cl)c3scnc3C(F)F)CC2)n1` (centres unmarked) [Example 67, 2-Chloro-N-{2-[4-(difluoromethyl)-1,3-thiazol-5-yl]-2-{4-[(5-fluoro-2,6-dimethylpyrimidin-4-yl)oxy]piperidin-1-yl}ethyl}-6-fluorobenzamide], the IC50 at P2X7 receptor came to 62.3 nM; at mP2X7, 64.5 nM.
The like results for `O=C(NCC(c1scnc1C(F)F)N1CCC(Oc2nccn3nccc23)CC1)c1c(F)cccc1Cl` (centres unmarked) [Example 44, 2-Chloro-N-{2-[4-(difluoromethyl)-1,3-thiazol-5-yl]-2-(4-{pyrazolo[1,5-a]pyrazin-4-yloxy}piperidin-1-yl)ethyl}-6-fluorobenzamide] were, in that order, 27.9 nM and 30.6 nM.
In the case of `N#Cc1ccncc1OC1CCN(C(CNC(=O)c2c(F)cccc2Cl)c2scnc2C(F)F)CC1` (centres unmarked) [Example 38, 2-Chloro-N-(2-{4-[(4-cyanopyridin-3-yl)oxy]piperidin-1-yl}-2-[4-(difluoromethyl)-1,3-thiazol-5-yl]ethyl)-6-fluorobenzamide], the IC50 is 57.5 nM at P2X7 receptor and 79.6 nM at mP2X7.
The corresponding values for `O=C(NCC(c1scnc1C(F)F)N1CCC(Oc2cnccn2)CC1)c1c(F)cccc1Cl` (centres unmarked) [Example 70, 2-Chloro-N-{2-[4-(difluoromethyl)-1,3-thiazol-5-yl]-2-[4-(pyrazin-2-yloxy)piperidin-1-yl]ethyl}-6-fluorobenzamidev] are 50 nM and 101 nM.

In general, IC50 refers to the concentration at which inhibition is half-maximal.
